Assay results as given in ChEMBL document CHEMBL5316341, “The Development and Design Strategy of Leucine-Rich Repeat Kinase 2 Inhibitors: Promising Therapeutic Agents for Parkinson's Disease” (J Med Chem, 2023).

Columns and labels:
[1] = biological target: T1, Protein cereblon/Leucine-rich repeat serine/threonine-protein kinase 2 (Homo sapiens, UniProt Q5S007+Q96SW2); assay: PROTAC activity at CRBN/wild type HiBit tagged-LRRK in HEK293 cells assessed as LRRK2 degradation by Nano-Glo dual-luciferase reporter assay; format: cell-based
[2] = biological target: T1, Protein cereblon/Leucine-rich repeat serine/threonine-protein kinase 2; assay: PROTAC activity at CRBN/wild type HiBit tagged-LRRK2 in HEK293 cells assessed as LRRK2 degradation by measuring maximum degradation by Nano-Glo dual-luciferase reporter assay relative to control; format: cell-based
[3] = biological target: Protein cereblon/Leucine-rich repeat serine/threonine-protein kinase 2 (Homo sapiens, UniProt Q5S007+Q96SW2, G2019S); assay: PROTAC activity at CRBN/HiBit tagged-LRRK2 G2019S mutant in HEK293 cells assessed as LRRK2 degradation by Nano-Glo dual-luciferase reporter assay; format: cell-based
[4] = system: Protein cereblon/Leucine-rich repeat serine/threonine-protein kinase 2 (Homo sapiens), Q5S007+Q96SW2 [G2019S]; assay: PROTAC activity at CRBN/LRRK2 G2019S mutant in HEK293 cells assessed as LRRK2 degradation by measuring maximum degradation by Nano-Glo dual-luciferase reporter assay relative to control; format: cell-based
[5] = biological target: T2, von Hippel-Lindau disease tumor suppressor/Leucine-rich repeat serine/threonine-protein kinase 2 (Mus musculus, UniProt P40338+Q5S006, R1441C); assay: PROTAC activity at VHL/LRRK2 R1441C mutant in mouse embryonic fibroblast cells assessed as induction of LRRK2 degradation; format: cell-based, MEF
[6] = biological target: T2, von Hippel-Lindau disease tumor suppressor/Leucine-rich repeat serine/threonine-protein kinase 2; assay: PROTAC activity at VHL/LRRK2 R1441C mutant in mouse bone marrow derived macrophages assessed as induction of LRRK2 degradation; format: cell-based, BMDM
[7] = biological target: T2, von Hippel-Lindau disease tumor suppressor/Leucine-rich repeat serine/threonine-protein kinase 2; assay: PROTAC activity at VHL/LRRK2 R1441C mutant in mouse PBMC cells assessed as induction of LRRK2 degradation; format: cell-based
[8] = system: von Hippel-Lindau disease tumor suppressor/Leucine-rich repeat serine/threonine-protein kinase 2 (Mus musculus), Q5S006+P40338 [R1441C]; assay: PROTAC activity at VHL/LRRK2 R1441C mutant in mouse embryonic fibroblast cells assessed as induction of LRRK2 degradation by measuring maximal efficacy relative to control; format: cell-based; details: MEF
[9] = system: von Hippel-Lindau disease tumor suppressor/Leucine-rich repeat serine/threonine-protein kinase 2 (Mus musculus), Q5S006+P40338 [R1441C]; assay: PROTAC activity at VHL/LRRK2 R1441C mutant in mouse bone marrow derived macrophages assessed as induction of LRRK2 degradation by measuring maximal efficacy relative to control; format: cell-based; details: BMDM
[10] = system: von Hippel-Lindau disease tumor suppressor/Leucine-rich repeat serine/threonine-protein kinase 2 (Mus musculus), Q5S006+P40338 [R1441C]; assay: PROTAC activity at VHL/LRRK2 R1441C mutant in mouse PBMC cells assessed as induction of LRRK2 degradation by measuring maximal efficacy relative to control; format: cell-based
[11] = system: von Hippel-Lindau disease tumor suppressor/Leucine-rich repeat serine/threonine-protein kinase 2 (Mus musculus), Q5S006+P40338 [R1441C]; assay: PROTAC activity at VHL/LRRK2 R1441C mutant in mouse embryonic fibroblast cells assessed as induction of LRRK2 degradation by measuring half-life; format: cell-based; details: MEF
[12] = system: von Hippel-Lindau disease tumor suppressor/Leucine-rich repeat serine/threonine-protein kinase 2 (Mus musculus), Q5S006+P40338 [R1441C]; assay: PROTAC activity at VHL/LRRK2 R1441C mutant in mouse bone marrow derived macrophages assessed as induction of LRRK2 degradation by measuring half-life; format: cell-based; details: BMDM
[13] = system: von Hippel-Lindau disease tumor suppressor/Leucine-rich repeat serine/threonine-protein kinase 2 (Mus musculus), Q5S006+P40338 [R1441C]; assay: PROTAC activity at VHL/LRRK2 R1441C mutant in mouse PBMC cells assessed as induction of LRRK2 degradation by measuring half-life; format: cell-based
[14] = Oral bioavailability in mouse; format: ADME, organism-based; details: in vivo
[15] = biological target: Leucine-rich repeat serine/threonine-protein kinase 2 (Homo sapiens, UniProt Q5S007); assay: Inhibition of wild-type LRRK2 (unknown origin) by adapta assay
[16] = biological target: Leucine-rich repeat serine/threonine-protein kinase 2 (Homo sapiens, UniProt Q5S007, G2019S); assay: Inhibition of LRRK2 G2019S mutant (unknown origin) by adapta assay

T2 sequence (P40338 whole entry, stated change not applied): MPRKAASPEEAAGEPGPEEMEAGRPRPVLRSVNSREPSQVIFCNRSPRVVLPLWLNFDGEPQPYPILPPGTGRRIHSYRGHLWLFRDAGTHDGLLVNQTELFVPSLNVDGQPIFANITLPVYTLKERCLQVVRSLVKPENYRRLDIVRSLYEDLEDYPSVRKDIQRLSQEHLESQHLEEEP
T2 sequence (Q5S006 whole entry R1441C, stated change not applied): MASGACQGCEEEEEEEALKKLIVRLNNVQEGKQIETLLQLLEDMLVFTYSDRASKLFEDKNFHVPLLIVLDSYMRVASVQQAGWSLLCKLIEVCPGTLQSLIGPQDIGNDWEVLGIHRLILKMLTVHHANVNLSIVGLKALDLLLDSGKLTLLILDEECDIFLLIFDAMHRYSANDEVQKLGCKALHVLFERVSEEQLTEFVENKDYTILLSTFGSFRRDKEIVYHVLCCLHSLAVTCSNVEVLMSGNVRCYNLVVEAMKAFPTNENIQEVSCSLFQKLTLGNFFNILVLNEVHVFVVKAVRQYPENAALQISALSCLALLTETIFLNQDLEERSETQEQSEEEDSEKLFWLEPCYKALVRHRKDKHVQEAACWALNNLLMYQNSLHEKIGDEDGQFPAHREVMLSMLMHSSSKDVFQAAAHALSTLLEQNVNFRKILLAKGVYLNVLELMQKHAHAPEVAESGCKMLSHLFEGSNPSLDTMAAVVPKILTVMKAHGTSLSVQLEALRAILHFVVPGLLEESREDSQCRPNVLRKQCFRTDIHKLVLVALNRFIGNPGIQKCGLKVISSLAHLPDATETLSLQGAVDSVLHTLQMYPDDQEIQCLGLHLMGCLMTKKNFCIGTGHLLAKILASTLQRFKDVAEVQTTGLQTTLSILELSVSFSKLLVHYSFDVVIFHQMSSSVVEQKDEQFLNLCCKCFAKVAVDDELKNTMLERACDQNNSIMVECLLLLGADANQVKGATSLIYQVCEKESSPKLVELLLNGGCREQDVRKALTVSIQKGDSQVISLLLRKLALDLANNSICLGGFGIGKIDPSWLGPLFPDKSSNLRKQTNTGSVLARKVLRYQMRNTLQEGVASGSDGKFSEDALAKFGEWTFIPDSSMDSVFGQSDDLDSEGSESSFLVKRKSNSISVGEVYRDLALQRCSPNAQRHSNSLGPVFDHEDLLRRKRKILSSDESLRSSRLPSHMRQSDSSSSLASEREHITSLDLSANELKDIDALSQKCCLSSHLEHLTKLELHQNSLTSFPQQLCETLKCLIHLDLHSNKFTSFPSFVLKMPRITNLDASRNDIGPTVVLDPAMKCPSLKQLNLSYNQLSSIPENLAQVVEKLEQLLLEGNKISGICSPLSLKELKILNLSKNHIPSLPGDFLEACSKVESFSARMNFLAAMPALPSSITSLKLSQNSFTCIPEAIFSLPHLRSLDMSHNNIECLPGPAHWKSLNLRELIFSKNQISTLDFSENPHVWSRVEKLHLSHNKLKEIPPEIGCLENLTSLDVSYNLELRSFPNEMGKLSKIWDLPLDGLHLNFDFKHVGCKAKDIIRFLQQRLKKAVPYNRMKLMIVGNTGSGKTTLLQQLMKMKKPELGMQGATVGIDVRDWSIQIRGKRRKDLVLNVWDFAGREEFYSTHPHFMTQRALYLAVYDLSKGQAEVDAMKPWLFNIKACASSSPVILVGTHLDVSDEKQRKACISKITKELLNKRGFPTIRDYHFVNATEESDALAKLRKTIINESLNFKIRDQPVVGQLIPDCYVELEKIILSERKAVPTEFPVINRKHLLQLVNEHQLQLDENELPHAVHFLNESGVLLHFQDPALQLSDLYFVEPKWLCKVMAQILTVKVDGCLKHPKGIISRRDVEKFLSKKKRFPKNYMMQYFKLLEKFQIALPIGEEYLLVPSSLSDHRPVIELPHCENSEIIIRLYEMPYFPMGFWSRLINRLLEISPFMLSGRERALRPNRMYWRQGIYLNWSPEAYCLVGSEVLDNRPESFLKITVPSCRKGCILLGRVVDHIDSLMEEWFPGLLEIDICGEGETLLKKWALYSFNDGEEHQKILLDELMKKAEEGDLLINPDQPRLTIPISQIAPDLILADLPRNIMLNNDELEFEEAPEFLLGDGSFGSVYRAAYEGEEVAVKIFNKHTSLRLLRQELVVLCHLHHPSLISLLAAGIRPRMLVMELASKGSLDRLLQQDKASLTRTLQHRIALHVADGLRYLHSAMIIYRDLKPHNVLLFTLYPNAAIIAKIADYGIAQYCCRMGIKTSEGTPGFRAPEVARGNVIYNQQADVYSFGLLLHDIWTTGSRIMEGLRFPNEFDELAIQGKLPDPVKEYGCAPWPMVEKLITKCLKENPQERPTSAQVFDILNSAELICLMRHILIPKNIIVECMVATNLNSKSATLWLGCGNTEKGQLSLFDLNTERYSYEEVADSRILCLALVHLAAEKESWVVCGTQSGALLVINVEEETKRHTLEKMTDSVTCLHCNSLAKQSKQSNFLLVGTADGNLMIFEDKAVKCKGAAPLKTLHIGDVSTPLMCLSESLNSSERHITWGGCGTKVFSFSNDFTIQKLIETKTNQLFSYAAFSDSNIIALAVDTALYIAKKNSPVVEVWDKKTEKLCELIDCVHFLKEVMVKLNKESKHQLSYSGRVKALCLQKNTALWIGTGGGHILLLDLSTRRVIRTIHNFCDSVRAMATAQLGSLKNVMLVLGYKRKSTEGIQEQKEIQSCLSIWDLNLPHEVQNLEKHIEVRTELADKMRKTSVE

C[C@H]1CN(c2cc(-c3n[nH]c4ccc(OC5(C)CC5)cc34)ccn2)CCN1CCOCCOCCOCCOc1ccc2c(c1)C(=O)N(C1CCC(=O)NC1=O)C2=O (stereo partly specified)
EC50 [1]: < 10 nM | Emax [2]: > 70% | EC50 [3]: < 10 nM | Emax [4]: > 70%

CNc1nc(Nc2ccc(C(=O)N3CCN(C[C@H]4CC[C@H](CSC(C)(C)[C@H](NC(=O)C5(F)CC5)C(=O)N5C[C@@H](O)C[C@@H]5C(=O)NCc5ccc(-c6scnc6C)cc5)CC4)CC3)cc2OC)ncc1Cl
EC50 [5]: 15 nM | EC50 [6]: 15 nM | EC50 [7]: 15 nM | Emax [8]: 82% | Emax [9]: 82% | Emax [10]: 82% | T1/2 [11]: 36 min | T1/2 [12]: 36 min | T1/2 [13]: 36 min | bioavailability [14]: 15%

CC1(Oc2ccc3[nH]nc(-c4cc(N5CCN(CCOCCOCCOCCOc6ccc7c(c6)C(=O)N(C6CCC(=O)NC6=O)C7=O)CC5)ncn4)c3c2)CC1 (stereo unspecified)
IC50 [15]: 1.46 nM | IC50 [16]: 0.98 nM
